# Earlier results as cited in patent publication US20050154016A1, “Preventives for hiv infection” (priority 2002, published 2005).
# System: R5 HIV-1
# Conditions: reported in non-patent document 18
structure (smiles),measurement,value
Cc1ccc(-c2ccc3c(c2)C=C(C(=O)Nc2ccc(C[N+](C)(C)C4CCOCC4)cc2)CCC3)cc1.[Cl-] [TAK-779],inhibitory effect against HIV-1 infection caused by R5 HIV-1,exhibits an inhibitory effect
